Experimental data published in US20040086942A1, “Ige receptor antagonists” (priority 2003, published 2004).
Several values for one entry are separate records, joined by “and”; a condition that tells them apart may be missing. Identical values can stand only once. Like-named read-outs stand apart in the source and are kept apart here. Where a SMILES comes first, the peptide text is derived from it. Bridges are numbered along the chain shown (N, C = ends). [ ]: non-standard residue; d: D form.

Experiments:
FcεRI-IgG = molecular target: T1, FcεRI-IgG (Homo sapiens, UniProt P12319); test: g3 phage competitive binding ELISA (competition with soluble FcεRI-IgG); settings: for Relative (IC50) (fold weaker): relative to g3c.42, NDB = no detectable binding
T1 construct: consisting of the extracellular domain of FcεR Ifused to the Fc domain of IgG; host or cells: CHO cells
T1 sequence (P12319 26-205 limits assumed): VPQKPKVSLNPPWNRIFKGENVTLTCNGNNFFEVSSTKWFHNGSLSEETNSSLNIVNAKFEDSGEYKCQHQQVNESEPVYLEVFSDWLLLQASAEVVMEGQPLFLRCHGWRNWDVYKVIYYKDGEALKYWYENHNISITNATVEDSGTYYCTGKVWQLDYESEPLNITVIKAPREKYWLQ
Protocol: A phage based competitive binding ELISA for immobilized FcεRI-IgG in the presence of titrated amounts of soluble FcεRI-IgG was performed on each of the clones.
Peptide sequences from g8p-fused phage clones that specifically bound FcεRI-IgG were transferred onto a g3p-display format for monovalent phage display (Bass et al., Proteins 8, 309-314 (1990); Lowman et al., Biochemistry 30, 10832-10838 (1991)). An oligonucleotide encoding for each desired peptide with additional 5′ and 3′ base pair that overlapped with g3 was synthesized. This oligonucleotide was annealed with a g3 single stranded DNA phagemid template. The mutagenesis reaction was transformed into XL-1 Blue E. coli and plated on LB-carb+ agar plates. Individual colonies were propagated in 5 mL of 2YT broth, tetracycline, carbenicillin and VCSM13 helper phage (Stratagene). Single stranded DNA was isolated from the purified phage particles and sequenced to confirm the insertion of the phage peptide sequence. 25 mL preparations of g3 phage clones were propagated overnight and purified by PEG precipitation. After resuspension of the phage pellet in 1.0 mL of PBS, it was serially diluted ⅓ and incubated with immobilized FcεRI-IgG 2 ug/mL in a 96 well Maxisorp microtiter plate for 1 hour at room temperature. The wells were washed 10× with PBST then incubated with 100 uL of anti M13 phage HRP as described above. An OD(492) value corresponding to less than 50% binding was selected and the purified phage clones were diluted to yield this normalized level of signal. […] The mixture was then transferred to 96 well microtiter dishes containing immobilized FcεRI-IgG. After a 1-hour incubation period, the plates were washed 10 times, incubated with anti M13-HRP conjugated antibody and developed with OPD as described above. The data was plotted, and 4-parameter fits (KaleidaGraph 3.0) used for calculation of IC50 values.
Alanine substitutions were made at various positions throughout the peptide sequence for monovalent (g3p) phage display using site directed mutagenesis as described (Kunkel et al., Methods Enzymol. 204, 125-139 (1991)). In addition, stepwise N-terminal and C-terminal truncations of the peptide sequence were constructed. All constructs were made by designing oligonucleotides corresponding to the desired substitution or truncation, with an additional 18 bp of DNA overlapping the peptide or g3 phage DNA sequence. The phage clones were propagated overnight following infection in XL-1 Blue E. coli. Purified phage preparations were titered and assayed for binding to immobilized receptor. FcεRI-IgG competition assays were performed as described above.

FcεRI = molecular target: T2, FcεRI (Homo sapiens, UniProt P12319); test: competitive phage ELISA on baculovirus-derived FcεRI; assay type: binding; settings: for relative binding affinity (in words): compared with the parent
T2 construct: human FcεRI(aa 1-176) was expressed using a baculovirus secretion expression system; host or cells: Hi-5 insect cells infected with baculovirus (virus produced in Sf9; transfer vector pAcGP67)
T2 sequence (P12319 26-201): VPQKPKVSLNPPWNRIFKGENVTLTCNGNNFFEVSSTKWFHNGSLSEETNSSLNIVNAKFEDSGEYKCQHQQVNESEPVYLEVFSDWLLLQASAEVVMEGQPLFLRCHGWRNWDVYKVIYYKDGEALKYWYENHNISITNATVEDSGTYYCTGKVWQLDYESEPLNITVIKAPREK
Excerpt: The extracellular domain of the alpha subunit of the human FcεRI(aa 1-176) was expressed using a baculovirus secretion expression system (Pharminten). cDNA encoding this domain was obtained through PCR of a plasmid containing a full length clone. The DNA fragment was ligated into baculovirus tranfer vector pAcGP67 and along with BaculoGold linearized baculovirus DNA was transfected into Sf9 cells Spodoptera frugiperda insect cells for baculovirus production (Pharmingen). Soluble FcεRI was affinity purified from the growth media of baculovirus infected Hi-5 insect cells (Expression Systems).
Phage ELISA assays were carried out as described (Lowman, 1998, supra), using Nunc Maxisorp™ plates coated with a 2 μg/mL solution of baculovirus-derived FcεRI. Peptide-phage were pre-incubated for 5-10 min with serial dilutions of receptor, then added to the receptor-coated plate. After incubation for 1 h at room temperature, the plates were washed and an anti-phage HRP-conjugated antibody (Pharmacia) was added. After further incubation for 20 min, plates were again washed and developed using the substrate OPD (Sigma). Optical density at 492 nm was read and plotted as a function of FcεRI concentration to determine an IC50 of inhibition by each peptide-phage variant.
A phage-based alanine scanning approach was used to map the FcεRI binding determinants of IGE134 (SEQ ID NOS:155, 171), as described above for IGE120 (SEQ ID NO:131, 159). […] Additionally, combinations of Ala mutations, deletions, and other substitutions were tested.

[1] = molecular target: T3, alpha subunit of the human FcεRI receptor (Homo sapiens, UniProt P12319); test: cell-based 125I-IgE binding inhibition assay on CHO FcεRI+ cells
T3 construct: expressed in transfected cells; host or cells: Chinese hamster ovary (CHO FcεRI+) cells
T3 sequence (P12319 26-257): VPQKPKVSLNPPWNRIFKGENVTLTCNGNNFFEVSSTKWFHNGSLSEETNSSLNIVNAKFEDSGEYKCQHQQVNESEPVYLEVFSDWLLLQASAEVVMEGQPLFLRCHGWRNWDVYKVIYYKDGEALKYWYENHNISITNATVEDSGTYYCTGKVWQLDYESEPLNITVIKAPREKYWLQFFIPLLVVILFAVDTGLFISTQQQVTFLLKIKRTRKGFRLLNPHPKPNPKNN
Outline: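 Peptides, serially diluted 1:3 from 50-500 uM, preincubated 1 h at room temperature on CHO cells expressing human FcεRI alpha, then 1.5 nM 125I-IgE added for 45-60 min at 4 °C. Buffer F12/DMEM, 1% BSA, 0.05% NaN3, pH 7.2. Bound counts by gamma counting; IC50 from 4-parameter fits.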

[2] = 2D NMR structural score versus reference peptide; assay type: physicochemical; design: key to Struct. Score: +++ indicates the peptide is structured similarly to IGE063 (SEQ ID NO:49); + indicates the peptide is structured similarly to IGE063 (SEQ ID NO:49), but is less stable; −/+ indicates the peptide has some elements of stable structure, but the conformation differs from the reference structure (e.g., a different turn type is evident); − indicates the peptide is predominantly unstructured in aqueous solution; key to Structure Score: +++, peptide structurally similar to reference; +, structurally similar to reference but significantly less stable; +/−, peptide has some elements of stable structure, but the conformation differs from the reference structure; −, peptide is predominantly unstructured; *peptide IGE037 (SEQ ID NO:128) was initially unstructured (monomeric form), but became structured after spontaneous dimer formation; settings: for Struct. Score: reference IGE063
Protocol: Peptides were evaluated by 2D NMR spectroscopy to assess the effect of substitutions on the three-dimensional structure of the peptide analog. All peptides with a structural score indicated in Table 5 were analyzed by 2D NMR spectroscopy; backbone ^1H resonances were assigned and ^3JHN-Hα coupling constants were measured and compared to the reference peptide (IGE063, SEQ ID NO:49; see Example 5). Peptides are defined to be of similar structure to the reference peptide provided chemical shifts, coupling constants, and NOEs are consistent with that structure.
A structural score was assigned to peptides analyzed by 2D NMR spectroscopy. For each of these peptides, backbone ^1H resonances have been assigned, and the ^3JHN-Ha coupling constants have been measured and compared to the reference peptide (i.e., IGE134 (SEQ ID NOS:155, 171)). Peptides are defined to be of similar structure to the reference peptide provided. chemical shifts, coupling constants, and NOEs are consistent with that structure.

[3] = g3 phage clones, immobilized FcεRI-IgG, titrated soluble FcεRI-IgG, read-out: Phage IC50
[4] = truncated peptides on g3 phage, read-out: IC50
[5] = inhibition of labeled IgE-binding to CHO FcεRI+ cells, read-out: Mean IC50(uM) ± S.D.

CTEGPWGWVCMAAD [g3c.21]
Relative (IC50) (fold weaker) (FcεRI-IgG; truncated peptides on g3 phage): NDB

NLPTCTEGPWGWVCMAAD [g3b.3]
IC50 (FcεRI-IgG; [3]): 7 nM

NLPRCTEGPWGWVCM [g3c.34]
Relative (IC50) (fold weaker) (FcεRI-IgG; truncated peptides on g3 phage): 3X
IC50 (FcεRI-IgG; [4]): 14.6 nM

AMAQCTEGPWGWVCMAAD [g3b.5]
IC50 (FcεRI-IgG; [3]): 10 nM

LPRCTEGPWGWVCMAAD [g3c.1]
Relative (IC50) (fold weaker) (FcεRI-IgG; truncated peptides on g3 phage): 1X
IC50 (FcεRI-IgG; [4]): 3 nM

NLPRCTEGPWGWVCMA [g3c.31]
Relative (IC50) (fold weaker) (FcεRI-IgG; truncated peptides on g3 phage): 1X
IC50 (FcεRI-IgG; [4]): 6.1 nM

VQCPHFCYVGGKALCPDVCYV
relative binding affinity (in words) (FcεRI): improved binding affinity

IVCPRLCYELDYELCPDVCYV
fold improved affinity over IGE120 (FcεRI; clone from IGE120-phage library): about 2 fold

VMPTCTEGPWGWVCMAAD [g3b.4]
IC50 (FcεRI-IgG; [3]): 7 nM

GRTECTEGPWGWVCMAAD [g3b.8]
IC50 (FcεRI-IgG; [3]): 14 nM

NLPRCTEGPWGWVCMAAD [g3b.1]
IC50 (FcεRI-IgG; [3]): 13 nM

NLPRCTEGPWGWVCMAA [g3c.29]
Relative (IC50) (fold weaker) (FcεRI-IgG; truncated peptides on g3 phage): 1X
IC50 (FcεRI-IgG; [4]): 5 nM

DLPACTEGPWGWVCMAAD [g3b.7]
IC50 (FcεRI-IgG; [3]): 9 nM

RCTEGPWGWVCMAAD [g3c.17]
Relative (IC50) (fold weaker) (FcεRI-IgG; truncated peptides on g3 phage): NDB

IVCPRLCYVGGKALCPDVCAV [SEQ ID NO:143]
fold reduction in binding affinity compared to IGE120 (FcεRI; IGE120-phage alanine scan): No detectable binding

CC(=O)N[C@@H](C)C(=O)N[C@@H](CC(C)C)C(=O)N[C@H]1CSSC[C@@H](C(=O)N[C@@H](Cc2ccc(O)cc2)C(=O)N[C@H](C(N)=O)C(C)C)NC(=O)[C@H](C(C)C)NC(=O)[C@H](C)NC(=O)[C@@H]2CCCN2C1=O [IGE038, Ac-ALCPAVCYV-nh2] (Ac-ALCPAVCYV-NH2; disulfide 3-7)
IC50 ([1]; IGE037: initially, read-out: IC50): > 500 µM
Structure Score ([2]; reference IGE134): −

CSCC[C@H](NC(=O)[C@@H]1CSSC[C@H](NC(=O)[C@H](CCCNC(=N)N)NC(=O)[C@@H]2CCCN2C(=O)[C@H](CC(C)C)NC(=O)[C@H](CC(N)=O)NC(C)=O)C(=O)N[C@@H]([C@@H](C)O)C(=O)N[C@@H](CCC(=O)O)C(=O)NCC(=O)N2CCC[C@H]2C(=O)N[C@@H](Cc2c[nH]c3ccccc23)C(=O)NCC(=O)N[C@@H](Cc2c[nH]c3ccccc23)C(=O)N[C@@H](C(C)C)C(=O)N1)C(=O)N[C@@H](C)C(=O)N[C@@H](CC(=O)O)C(=O)N[C@@H](CC(=O)O)C(N)=O [IGE031, Ac-NLPRCTEGPWGWVCMADD-nh2] (Ac-NLPRCTEGPWGWVCMADD-NH2; disulfide 5-14)
IC50 [1, 5]: 1.1 ± 0.7 µM
Struct. Score [2]: +++

GRAQCTEGPWGWVCMAAD [g3b.6]
IC50 (FcεRI-IgG; [3]): 16 nM

NLPRCTEGPWGWVCMAAD [g3c.42]
Relative (IC50) (fold weaker) (FcεRI-IgG; truncated peptides on g3 phage): 1X
IC50 (FcεRI-IgG; [4]): 3.1 nM and 5.6 nM

CSCC[C@H](NC(=O)[C@@H]1CSSC[C@H](NC(=O)[C@H](CCCNC(=N)N)NC(=O)[C@@H]2CCCN2C(=O)[C@H](CC(C)C)NC(=O)[C@H](CC(N)=O)NC(C)=O)C(=O)N[C@@H]([C@@H](C)O)C(=O)N[C@@H](CCC(=O)O)C(=O)NCC(=O)N2CCC[C@H]2C(=O)N[C@@H](Cc2c[nH]c3ccccc23)C(=O)N[C@H](CCC(=O)O)C(=O)N[C@@H](Cc2c[nH]c3ccccc23)C(=O)N[C@@H](C(C)C)C(=O)N1)C(=O)O [IGE114, Ac-NLPRCTEGPWeWVCM] (Ac-NLPRCTEGPW[dE]WVCM-OH; disulfide 5-14)
IC50 [1, 5]: 1.7 µM
Struct. Score [2]: +++

IVCPRLCYVGGKALCPDVCYV [SEQ ID NO:131]
relative binding affinity (in words) (FcεRI): improved binding affinity
